Measurements from ChEMBL document CHEMBL2010637, “Synthesis and evaluation of triazolones as checkpoint kinase 1 inhibitors” (Bioorg Med Chem Lett, 2012).

How the values were obtained:
[1] = AUC in nude mouse; assay type: ADME, organism-based; settings: plasma
[2] = Volume of distribution at steady state in nude mouse; assay type: ADME, organism-based; settings: in vivo, read-out: Vdss
[3] = Half life in nude mouse; assay type: ADME, organism-based; settings: in vivo
[4] = Lipophilicity, Log D of the compound; assay type: physicochemical; settings: octanol/water
[5] = Clearance in nude mouse; assay type: ADME, organism-based; settings: in vivo

AUC [1]: 5.47 µM·h | Vd [2]: 3.4 L/kg | half-life [3]: 108 min | logD [4]: 2.19 | clearance [5]: 33 mL/min/kg
SMILES: O=c1[nH]nc2cc(CO)c3ccc(-c4ccc[nH]4)cc3n12
